This note sets out measurements from US20210205322A1, “RICTOR-TARGETED THERAPY IN THE MANAGEMENT OF BRAIN METASTASES” (Albert Einstein College of Medicine, priority 2020, published 2021).

Entries after “also recorded” stand apart in the source; their conditions may differ.

Experiment [1] has as its system lung cancer cell. Nature of the experiment: SDF-1α-induced invasion and migration (CXCR4 pathway). The class given is cell-based. How it is done:
(§1) In vitro Cell Migration and Invasion Assay: The transwell assay was performed according to manufacturer's protocol (Corning, N.Y.). Briefly, the cells were starved for 24 hours and then seeded on the transwell insert (Corning, N.Y.) in 12-well plates. The bottom of the well contained medium with 10% FBS. After 24 hours, the bottom of the inserts were fixed with 70% ethanol and stained with 0.5% crystal violet. The cells were counted triplicate under microscope.
(§2) In the invasion assay, matrigel (0.8 mg/ml) layer was added on the transwell insert first. After the matrigel layer was solidified, the experiment was performed in the same way as the migration assay.

For experiment [2], the system named is lung cancer cell. Nature of the experiment: Apoptosis (cleaved PARP) with AKT inhibitors. The format is cell-based. Conditions: for apoptosis: AKT inhibitor added to inducible RICTOR knockdown; for apoptosis (cleaved PARP): AKT inhibitor alone. How it is done: (§3) Immunoblotting and Antibodies: All antibodies were purchased from Cell Signaling Technology (Boston, Mass.). Cell lysate was harvested using RIPA buffer and the supernatant was subjected for following steps after centrifugation. Proteins were subjected to 10% SDS-PAGE gel and transferred onto […] nitrocellulose membrane (Biorad, Calif., USA) for western blot analysis. After incubation with primary antibody overnight at 4° C., the membrane was washed and incubated with secondary antibodies. The final blots were developed with a chemiluminesence system (Promega, Wis., USA).
(§4) AKT is a downstream effector of the RICTOR-mTOCR2 pathway, to determine its role in RICTOR-mediated metastasis, the effects of two structurally different AKT inhibitors, AR-42 and ipatasertib were inestigated.

For experiment [3], the system named is lung cancer cell. Nature of the experiment: Invasion and migration with AKT inhibitors. As to conditions: for invasion and migration: AKT inhibitor added to inducible RICTOR knockdown; for lung cancer cell invasion and migration: AKT inhibitor alone, FIG. 10A-E. The class given is cell-based. Here is the method:
as §1, §2, §4

Experiment [4] relates to lung cancer cell. The experiment is described as follows: Cell proliferation with AKT inhibitors. The format is cell-based. As to conditions: 24-hour treatment.
Source text: as §4

In experiment [5] the test system is RICTOR-amplified H1703 lung cancer cells. Nature of the experiment: Transwell cell migration and invasion assay in H1703 cells. The class given is cell-based. As to conditions: in vitro; FIG. 7C. How it is done: as §1, §2
In experiment [6] the test system is RICTOR-amplified H23 lung cancer cells. The experiment is described as follows: Transwell cell migration and invasion assay in H23 cells. The format is cell-based. As to conditions: in vitro; FIG. 7C. How it is done: as §1, §2
Experiment [7] deals with H23 lung cancer cells labeled with luciferase reporter gene. Nature of the experiment: In vivo metastasis assay, stereotactic brain injection model. Further details: species or system mouse. An excerpt:
To further test whether RICTOR amplification affects in vivo metastasis, either the inducible H23-R4 or the parental H23 lung cancer cells labeled with luciferase reporter gene (H23-R4-Luc) were implanted in mouse brain stereotactically.

Experiment [8] deals with HCC827 OE cells. The experiment is described as follows: Transwell cell migration and invasion assay in HCC827 OE cells. As to conditions: migration and invasion promoted by RICTOR upregulation (doxycycline). The format is cell-based. How it is done: as §1, §2
The next experiment relates to PC9 parental cells. Nature of the experiment: Cell growth assay, combined treatment of sapanisertib and EGFR TKIs. Conditions: sapanisertib 5 nM combined with erlotinib, afatinib or osimertinib; FIG. 3C.
The test system of a further experiment is PC9-R4. Nature of the experiment: Drug response by clonogenic survival assay in inducible RICTOR knockdown PC9-R4 cells. The format is cell-based. As to conditions: for inhibitory effects on cell proliferation: RICTOR knockdown cells vs no knockdown.
A further experiment relates to ER cells. The experiment is described as follows: ER mouse tumor xenograft model. The class given is in vivo, mice. How it is done: Xenograft Mouse Studies: Athymic mice (Envigo Laboratory, male, 6-8 weeks old) were inoculated subcutaneously with 5×10^6 NSCLC cells. After 2 days, mice were divided into a vehicle control (water) group and a doxycycline group, with 6 mice in each group. Doxycycline was administered by oral gavage: 100 mg/kg/day. The same volume of water was given to the control group. A total of 20 daily doses were administered in 4 weeks. […] Tumors were measured with calipers twice weekly and the size was calculated as length×width^2/2. The protocol was approved by the Institutional Animal Care and Use Committee.
The in vivo mouse tumor xenograft model was performed using ER cells.

The next experiment relates to ER3-R4. Nature of the experiment: Western blot analysis (c-PARP) of osimertinib-treated ER3-R4 cells. The class given is cell-based. Conditions: osimertinib-treated cells with RICTOR knockdown; osimertinib 0.5 μM; FIG. 4D. Here is the method: as §3
To evaluate whether RICTOR-induced Axl upregulation was a common resistant mechanism for EGFR TKIs, Axl signaling in osimertinib-treated ER3-R4 and HCC827 OE cells was examined. […] Taken together, RICTOR positively regulates EGFR TKI resistance by upregulating Axl expression, which seems to be a common resistance mechanism shared by EGFR TKIs.

The test system of experiment [9] is erlotinib-resistant HCC827 cell line (ER). The experiment is described as follows: MTS cell viability and clonogenic survival assays in erlotinib-resistant HCC827 cells (ER). The class given is cell-based. As to conditions: Axl-overexpressed ER; FIG. 1I and 1J. How it is done: Cell Growth and Viability Assay: The MTS proliferation assay was performed as described in manufacture protocol (Promega, Wis., USA). Cells were seeded at a density of 2000 cells per well in 96-well plates. After incubating with drugs for 72 hours, MTS reagent was added and the absorbance was measured at 490 nm. Viable cell numbers were determined using the MTS assay kit according to the manufacturer's protocol.

Experiment [10] has as its system HCC827 OE cells. The experiment is described as follows: Western blot analysis (c-PARP) of osimertinib-treated HCC827 OE cells. The class given is cell-based. Conditions: osimertinib-treated cells with RICTOR upregulation; osimertinib 50 nM; FIG. 4D. (A western blot detects proteins with antibodies after separation by electrophoresis.)
Method: Immunoblotting and Antibodies: All antibodies were purchased from Cell Signaling Technology (Boston, Mass.). Cell lysate was harvested using RIPA buffer and the supernatant was subjected for following steps after centrifugation. Proteins were subjected to 10% SDS-PAGE gel and transferred onto 0.45 μM nitrocellulose membrane (Biorad, Calif., USA) for western blot analysis. After incubation with primary antibody overnight at 4° C., the membrane was washed and incubated with secondary antibodies. The final blots were developed with a chemiluminesence system (Promega, Wis., USA).
For a further experiment, the system named is HCC827 OE. Conditions: RICTOR upregulation with doxycycline; FIG. 2C. Here is the method: Next, it was determined whether RICTOR upregulation could result in EGFR TKI resistance. A doxycycline-inducible RICTOR upregulation model in HCC827 cells (HCC827 OE) was generated.

Method for PC9 parental cells: Clonogenic Survival Assay: Logarithmically growing cells were plated in triplicate. All drugs were added for 72 hours and withdrawn afterwards. After 10-14 days, colonies were fixed with 70% EtOH and stained with 0.5% crystal violet (Sigma Aldrich, St Louis, Mo.). Surviving colonies were defined as colonies containing >50 cells.

Consider `c1cc(CN2CCCNCCNCCCNCC2)ccc1CN1CCCNCCNCCCNCC1` [AMD3100], for which the “SDF-1α-induced invasion and migration” value in the experiment on lung cancer cell [1] (FIG. 11B and C) is recorded as “significantly reduced”.

With `CC(C)[C@H](C(=O)Nc1ccc(C(=O)NO)cc1)c1ccccc1` [AR-42], in the experiment with lung cancer cell [2], the apoptosis entry is given as “more pronounced apoptosis” and the “apoptosis (cleaved PARP)” value is “increased apoptosis”. In addition, in the experiment on lung cancer cell [3], the invasion and migration entry is on record as “significantly further reduced”; the “lung cancer cell invasion and migration” value is “significantly decreased”. In addition, the “change in cell proliferation” value in the experiment with lung cancer cell [4] is “did not result in significant change”.

In the case of `CNC(=O)c1cccc(-c2ccc3c(N4CCOC[C@@H]4C)nc(N4CCOC[C@@H]4C)nc3n2)c1` [AZD2014, 3-[2,4-bis[(3S)-3-methylmorpholin-4-yl]pyrido[2,3-d]pyrimidin-7-yl]-N-methylbenzamide], the migration and invasion entry in experiment [5] and in experiment [6] was “significantly reduced” throughout.

With `Nc1cc(C(F)(F)F)c(-c2nc(N3CCOCC3)nc(N3CCOCC3)n2)cn1` [PQR309, 5-(4,6-dimorpholin-4-yl-1,3,5-triazin-2-yl)-4-(trifluoromethyl)pyridin-2-amine], the migration and invasion result in [5] and in experiment [6] was “significantly reduced” each time.

On to `CC(C)n1nc(-c2ccc3oc(N)nc3c2)c2c(N)ncnc21` [TAK228, 5-(4-amino-1-propan-2-yl-3-pyrazolo[3,4-d]pyrimidinyl)-1,3-benzoxazol-2-amine], for which the migration and invasion entry in [5] and in experiment [6] was “significantly reduced” throughout. Besides, the “reduction of tumor growth in the brain” value in experiment [7] (P<0.01, FIG. 8B) is reported as “approximately 75%”. In addition, the near complete responses in experiment [7] (after 4 weeks of daily oral lavage, 3 out 7) is reported as 43%. Further, the “tumor growth in the brain” value in experiment [7] (result in words) is listed as “remarkably reduced the lung cancer growth in the brain; also recorded: significantly reduced tumor growth in the brain”. Also, the “cell migration and invasion” value in the experiment on HCC827 OE cells [8] is given as “inhibited”. For the same compound, in the experiment with PC9 parental cells, the “sensitivity of EGFR TKIs in combined treatment” value is “significantly improved the sensitivity of all three inhibitors”.

As for `CN(C)C/C=C/C(=O)Nc1cc2c(Nc3ccc(F)c(Cl)c3)ncnc2cc1O[C@H]1CCOC1` [afatinib], the “decrease of IC50 upon RICTOR knockdown” value in the experiment on PC9-R4 (PC-9 cells, FIG. 3B) is more than 10 fold.

For `C#Cc1cccc(Nc2ncnc3cc(OCCOC)c(OCCOC)cc23)c1` [erlotinib], in the experiment on ER cells (combination treatment (RICTOR knockdown and erlotinib), western blot of tumor lysate, FIG. 1H), the “expression of Axl in xenograft tumors” value is on record as “lowest expression of Axl”. The tumor growth entry is recorded as “markedly blocked tumor growth” in the experiment with ER cells (combined treatment (RICTOR knockdown by doxycycline and erlotinib), vs either approach alone, P<0.05); “failed to inhibit tumor growth” in the experiment on ER cells (erlotinib alone, four weeks of treatment, oral gavage daily). The “inhibitory effects on cell proliferation” value in the experiment with PC9-R4 is “higher inhibitory effects”.

For `CC(C)NC[C@@H](C(=O)N1CCN(c2ncnc3c2[C@H](C)C[C@H]3O)CC1)c1ccc(Cl)cc1` [ipatasertib], in the experiment with lung cancer cell [2], the apoptosis result is reported as “more pronounced apoptosis” and the “apoptosis (cleaved PARP)” value is “increased apoptosis”. Besides, in the experiment on lung cancer cell [3], the invasion and migration entry is reported as “significantly further reduced”; the “lung cancer cell invasion and migration” value is given as “significantly decreased”. For the same compound, in the experiment with lung cancer cell [4], the “change in cell proliferation” value is “did not result in significant change”.

As to `C=CC(=O)Nc1cc(Nc2nccc(-c3cn(C)c4ccccc34)n2)c(OC)cc1N(C)CCN(C)C` [osimertinib], in the experiment on HCC827-R4, the “decrease of IC50 upon RICTOR knockdown” value is given as more than 10 fold and the “inhibitory effects on cell proliferation” value is listed as “higher inhibitory effects”. For the same compound, in the experiment on ER3-R4, the “apoptosis (c-PARP)” value is on record as “more pronounced apoptosis”. Also, in [9], the “drug response of ER” value is reported as “resistance to both inhibitors”. The apoptosis entry with HCC827 OE cells [10] is “less apoptosis”. Further, the “resistance compared to parental HCC827 cells” value with HCC827 OE is “more resistant”. Moreover, the “inhibitory effects on cell proliferation” value in the experiment with PC9-R4 is given as “higher inhibitory effects”.

With SDF-1α, the migration and invasion entry in the experiment on lung cancer cell [1] (activation of the CXCR4 pathway by treatment with SDF-1α) was “increased migration and invasion”.
